Consider six molecules from publication PMC4838304, “Effective Design of Multifunctional Peptides by Combining Compatible Functions” (PLoS Computational Biology, 2016).

In data set [1] the test system is Escherichia coli strain DH5α. Nature of the data set: microbe, parasite or virus in culture. It counts as cell-based. From the text:
If CPP, DNA binding and AMP activities are compatible, the designed peptides should inhibit bacterial growth. Here we exposed E. coli DH5α cells to varying low concentrations of the designed peptides as well as several controls (see Fig 4). […] To test whether α-factor was important for AMP activity we also tested pure α-factor, pure NLS, the optimized NLS fitting CPP rules (NLS-CE) and the Iztli-1 peptide, a previously reported peptide with an embedded α-factor specifically designed to have antibacterial activity. […] A linear trend could be observed between concentration and growth inhibition (regression lines with standard deviations shown in Fig 6). […] The minimal inhibitory concentrations for E. coli are reported in Table 2 (growth curves are shown in S4 Fig).
Fig 6 Antibacterial activity. DH5α E. coli cells were treated with varying concentrations of peptides ranging from 0 to 16 μM for the peptides and 0 to 48 μM for Ampicillin. The relative area under the growth curve measured the growth inhibition. Measurements from four repetitions distributed onto two different plates are shown as dots colored by their respective concentrations. Linear regressions are shown as blue lines and their respective standard errors as blue shades. Dashed lines indicate the mean area under the curve for the H2O controls and its 50% value respectively. Minimal inhibitory concentrations to achieve 50% or 100% of cell growth inhibition are reported.
Escherichia coli strain DH5α was grown for 12 hours to mid-log phase and diluted to 8·10^5 cells/ml by using the reference OD obtained by absorption spectroscopy. Each sample 100μL culture was treated with 50μL solution containing the respective peptide in the desired concentration or water in the case of the controls. Growth curves were measured on two 96 well half area plates with two replicates each followed for 24h using a plate reader (Synergy, USA). In order to minimize plate-specific effects due to variations in loading time or initial cell numbers, different plates measurements were normalized by the time-point where the water control samples reached their half-maximal OD before combining. The respective minimum from each growth curve was subtracted from the normalized data from individual or combined plates. Areas under the curves were obtained by applying a linear interpolation to the OD curves, which was then integrated exactly. Growth rates were obtained by log-transforming the growth curves, identifying the exponential phase by the linear parts in that log-transformation (OD600 between 0.05 and 0.5) and performing a linear regression in the exponential phase with the slope denoting the respective growth rate. All mentioned methodology was implemented in R (www.r-project.org) and is available as open source at http://github.com/cdiener/dcf.
Using the slope of the linear regressions determined in these experiments, we estimated the minimal inhibitory concentration (MIC) for E. coli of our 3 CPP designed peptides (α-NLS-C, NLS-α-CE and chimera) and tested it experimentally.

The test system of another data set is pGREG546 plasmid. Briefly: Electrophoretic mobility shift assay (EMSA), DNA retention. It is filed as binding. As to conditions: for DNA binding in EMSA, in words: 1μg pGREG546, DNA to peptide charge ratio 1:1 or 1:4, 30 minutes. An excerpt: To test the ability of the designed peptides to bind nucleic acids, we evaluated by electrophoretic mobility shift assays (EMSAs) the retention of DNA by the designed peptides. Each EMSA was executed with peptide quantities that were multiples of the DNA to peptide charge ratio. A DNA to peptide charge ratio of 1:1 is represented by the number of positive charges of the peptide required to neutralize the negative charges of the DNA backbone. Retention in the gel is an indirect measure of the fraction of positive charges within the peptide participating in binding the DNA molecules. All EMSA assays were performed using the yeast plasmid pGREG546. As negative control, pGREG546 without any peptide was used, and as positive control the known DNA-binding cell penetrating peptide MPG was used. […] However, retention in the gel was observed when NLS was joined to any larger peptide fragment.
Fig 4 DNA binding. (A) Quantification of DNA retention obtained from three independent electrophoretic mobility shift assays. All measurements are shown and horizontal bars denote the sample mean. Representative gels are shown in (B-C).
1μg of pGREG546 plasmid was pre-incubated with the required quantity of each peptide to result in a 1:1 or 1:4 peptide charge to DNA charge ratio. Samples were incubated for 30 minutes and loaded on a 1% Agarose gel in SB buffer. DNA affinity was quantified by measuring the mean pixel intensity of the DNA bands with Fiji (http://fiji.sc) and normalizing to the intensity range between an empty spot on the gel and the intensity of the pGREG546 plasmid without any added peptide. Analysis scripts for the EMSA experiments as well as the raw data can be found with the distributed source code at http://bis.ifc.unam.mx/software/dcf.

Data set [2] concerns pheromone-signaling pathway (Fus1-eGFP) in MATa cells. Nature of the data set: Pheromone signaling assay, Fus1-GFP expression and shmoo phenotype. It is filed as cell-based, Saccharomyces cerevisiae. To be noted: BY4741 fus1::eGFP, 60 μM peptide (20 μM for α-factor), 3h. On the procedure: Finally, the activity of the α-factor embedded in the peptides was evaluated by activation of the pheromone-signaling pathway in MATa cells of S. cerevisiae. We monitored the pheromone signaling activity by following the expression of the GFP-labeled Fus1 protein. Fus1 is among the proteins with the highest pheromone-induced expression and is required for cell-cell fusion during mating. […] The observed phenotype was consistent with the activation of signaling showing a mating protrusion, often called “shmoo” as well as the absence of budding due to inhibition of the Cdc28 cyclin [35, 36].
Fig 5 Pheromone activity. The pheromone signaling pathway is confirmed by the expression of Fus1-GFP, characteristic “shmoo” phenotype and the absence of budding observed in differential interference contrast (DIC) bright field. Concentrations were 20 μM for α-factor and 60 μM for all other peptides. The negative control was water without any peptide.
Pheromone signaling induction in Saccharomyces cerevisiae was measured by induction of eGFP fluorescence in a BY4741 strain containing the Fus1-eGFP construct in place of the wild type Fus1 (MATa his3Δ1 leu2Δ0 met15Δ0 ura3Δ0 fus1::eGFP HIS3MX6, obtained from the yeast GFP collection). The BY4741 fus1::eGFP strain was grown overnight in YPD to mid-log phase and diluted to 10^6 cells/mL. Samples were treated with the respective peptide concentrations and incubated for 3h before mixing 1:1 with low-diffusivity agarose suspended on a covered glass slide. Images were taken with an Olympus FV10 confocal microscope using a 60x objective with […]. Images were analyzed using Fiji (www.fiji.sc). The only modifications applied to the images were separation of the bright field and GFP channels, adjustment of brightness and contrast to 50% and addition of scale bars.

Data set [3] relates to Escherichia coli strain DH5α. It counts as cell-based. As to conditions: 12 h.
The nature of data set [4]: Circular dichroism, secondary structure content (CONTIN/LL). To be noted: for Secondary Structure Random coil / Secondary Structure α-Helix / Secondary Structure β-Sheet: 0.3mg in 1mL, 20°C, far-UV CD, CONTIN/LL. It counts as physicochemical. On the procedure:
We studied the structural properties of the peptides in vitro, using circular dichroism (see Materials and Methods). The far-UV CD spectra for NLS-CE, NLS-α and NLS-α-CE in water matched the characteristics of a random coil conformation.
Circular dichroism spectra were recorded on a ChirascanTM CD Spectrometer (Applied Photophysics, UK) equipped with a peltier temperature controller. 0.3mg of each peptide was dissolved in 1mL of water or 50% aqueous trifluoroethanol and placed in quartz cuvettes of 0.1cm path length. Far-UV CD spectra were collected from 185 to 250 nm at 20°C. Spectra were averaged over 5 scans and the averaged blank spectra of solvents were subtracted. Ellipticity is reported as mean residue molar ellipticity and recorded in terms of molar elipticity [θ] (deg cm^2 dmol^−1). CONTIN/LL within the CDPro analysis software program was used to estimate the secondary structure content of the peptides.

The mark [5] stands for this setting: E. coli DH5α, peptides 0 to 16 μM.

Like-named read-outs stand apart in the source and are kept apart here.

As to `CC1(C)S[C@@H]2[C@H](NC(=O)[C@H](N)c3ccccc3)C(=O)N2[C@H]1C(=O)O` [Ampicillin, reference compound], the MIC is greater than 48 µM in data set [1] (Escherichia coli, E. coli DH5α, growth curves followed for 24h, relative area under the growth curve, read-out: E. coli MIC for 50% inhibition); 100 µM in data set [1] (Escherichia coli, E. coli DH5α, predicted from linear regression and tested experimentally, read-out: E. coli MIC for 100% inhibition).
In the case of `CSCC[C@H](NC(=O)[C@@H]1CCCN1C(=O)[C@H](CCC(N)=O)NC(=O)CNC(=O)[C@@H]1CCCN1C(=O)[C@H](CCCCN)NC(=O)[C@H](CC(C)C)NC(=O)[C@H](CCC(N)=O)NC(=O)[C@H](CC(C)C)NC(=O)[C@H](Cc1c[nH]c2ccccc12)NC(=O)[C@H](Cc1c[nH]cn1)NC(=O)[C@H](Cc1c[nH]c2ccccc12)NC(=O)[C@H](Cc1ccccc1)NC(=O)[C@H](CCCNC(=N)N)NC(=O)[C@H](CC(N)=O)NC(=O)[C@H](CC(C)C)NC(=O)[C@H](Cc1ccccc1)NC(=O)[C@@H](N)CCCCN)C(=O)N[C@@H](Cc1ccc(O)cc1)C(=O)O` [Iztli-1, reference compound], the MIC in data set [1] (DH5α, 24 h, read-out: E. coli MIC for 50% inhibition) is reported as 8 µM. Besides, the “antibacterial activity against E. coli, in words” value (from here on “antibacterial activity”) in data set [1] (setting [5]) is recorded as “very similar E. coli growth inhibition as NLS-α”. In the data set on pGREG546 plasmid, the “DNA binding in EMSA, in words” value is listed as “increased its affinity for DNA”. Further, the “pheromone signaling activity (Fus1-GFP expression, phenotype)” value in data set [2] is listed as “same phenotype”. The “E. coli MIC for 100% inhibition” value in data set [3] was determined as 20 µM.
As to PKKKRKVWHWLQLKPGQPMY [NLS-α], the “concentration showing partial growth inhibition” value in data set [1] (setting [5]) was 4 µM. Besides, in data set [2], the “pheromone signaling activity (Fus1-GFP expression, phenotype)” value is recorded as “significant induction of expression of Fus1-GFP”. In data set [4] (50% TFE), the “Secondary Structure Random coil” value stood at 59%, the “Secondary Structure α-Helix” value came to 6% and the “Secondary Structure β-Sheet” value worked out at 35%. In addition, the “aggregation suggested by decrease in negative ellipticity” value in data set [4] (50% TFE, CD spectra) is recorded as “TFE promoted aggregation of the peptides”. In data set [4] (water), the “Secondary Structure Random coil” value was found to be 67%, the “Secondary Structure α-Helix” value was found to be 5% and the “Secondary Structure β-Sheet” value was determined as 28%.
QPKKKRKV [NLS, reference compound]: the “antibacterial activity” value in data set [1] (setting [5]) is “no antibacterial activity”. Moreover, the “DNA binding in EMSA, in words” value with pGREG546 plasmid is “not capable of binding DNA in low concentrations”.
For the molecule “WHWLQLKPGQPMY [α-factor, mating pheromone α-factor from S. cerevisiae, purchased from Sigma-Aldrich]”, the “antibacterial activity” value in data set [1] (setting [5]) is given as “no antibacterial activity”. In addition, the “DNA binding in EMSA, in words” value in the data set on pGREG546 plasmid was “weak ability to bind DNA”. Besides, the DNA retention entry with pGREG546 plasmid (1:4 DNA to peptide charge ratio, 1μg pGREG546, 30 minutes, 1% agarose gel) was “around 60%”.
With “WRFVWMNPKKKRKV [NLS-CE, optimized NLS fitting CPP rules]”, the “antibacterial activity” value in data set [1] (setting [5]) is given as “partial growth inhibition”. In addition, the “DNA binding in EMSA, in words” value in the data set with pGREG546 plasmid was “effective DNA-binding activity”. For the same molecule, in data set [4] (50% TFE), the “Secondary Structure Random coil” value was 61%, the “Secondary Structure α-Helix” value came to 5% and the “Secondary Structure β-Sheet” value amounted to 34%. Also, in data set [4] (water), the “Secondary Structure Random coil” value was 64%, the “Secondary Structure α-Helix” value is listed as 6% and the “Secondary Structure β-Sheet” value was 31%.
